From patent publication US20250163006A1, “New Coolants, and Preparations Containing Same” (Symrise AG, priority 2022, published 2025) come the findings set out here.

pEC50: −log10 of the molar value. Read-outs that look alike come from different tables or passages of the source.

In this assay the target is T1, human TRPM8 receptor (Homo sapiens, UniProt Q7Z2W7).
T1 construct: expressed in transfected cells; host or cells: HEK293, stably transfected, tetracycline-inducible expression
Briefly: Assay on TRPM8 modulators: Ca2+-sensitive dye (Fluo-4) fluorescence in HEK293-TRPM8 test cells. Also noted: relative TRPM8 activation: concentration or dose not given beside the values. The note with it: for relative TRPM8 activation: HEK293 cells recombinantly expressing human TRPM8; for pEC50: HEK293-TRPM8 cells. It is filed as cell-based. The text has this:
The starting point for cloning the human TRPM8 receptor is an LnCaP cDNA bank. This is commercially available (e.g. BioChain, Hayward, USA) or can be produced from the andro gene-sensitive human prostate adenocarcinoma cell line LnCaP (e.g. ATCC, CRL1740 or ECACC, 891 1021 1) using standard kits.
The coding TRPM8 sequence (see e.g. http://www. ncbi.nlm.nih.gov/entrez/viewer.fcgi?db=nuccore&id=109689694) can be PCR-amplified and cloned using standard methods. The human TRPM8 gene isolated in this way was used to produce the plasmid plnd_M8. Alternatively, the TRPM8 gene can also be produced synthetically.
A stably transfected HEK293 cell line was produced as a test cell system using human TRPM8 DNA. Preference was given to HEK293, which offers the possibility of inducing TRPM8 expression using tetracycline via the plasmid introduced.
A test similar to the test already described in the literature by Behrendt H. J. et al, Br. J. Pharmacol. 141, 2004, 737-745, is performed. The agonization or antagonization of the receptor can be quantified using a Ca^2+-sensitive dye (e.g. FURA, Fluo-4 etc.). Agonists alone cause an increase in the Ca^2+ signal; antagonists cause a reduction in the Ca^2+ signal in the presence of e.g. menthol (detected in each case using the Fluo-4 dye, which has different fluorescence properties due to Ca^2+ ions).
First, a fresh culture of transformed HEK cells is prepared in cell culture flasks in the usual way. The HEK293-TRPM8 test cells are detached from the cell culture flasks using trypsin and 40,000 cells/well are seeded with 100 μl medium in 96-well plates (Greiner #655948 poly-D-lysine-coated). To induce the TRPM8 receptor, tetracycline is added to the growth medium (DMEM/HG, 10% FCS tetracycline-free, 4 mM L-glutamine, 15 μg/ml blasticidin, 100 μg/ml hygromycin B, 1 μg/ml tetracycline).
On the following day, the cells are loaded with Fluo-4AM dye and the test is performed. Proceed as follows: Addition of 100 μl/well staining solution Ca-4 kit (RB 141, Molecular Devices) to each 100 μl medium (DMEM/HG, 10% FCS tetracycline-free, 4 mM L-glutamine, 15 μg/ml blasticidin, 100 μg/ml hygromycin B, 1 μg/ml tetracycline).
Incubation in incubator, 30 minutes/37° C./5% CO2, 30 minutes/RT.
Preparation of the test substances (different concentrations in 200 μl HBSS buffer), as well as positive controls (different concentrations of menthol, icilin or lonomycin in 200 μl HBSS buffer) and negative controls (only 200 μl HBSS buffer) Addition of the test substances in quantities of 50 μl/well and measurement of the fluorescence change (e.g. in the assay device FLIPR, Molecular Devices or NovoStar, BMG) at 485 nm excitation, 520 nm emission, and evaluation of the potency of the different substances/concentrations and determination of the ECG. e.g. in the FLIPR assay device, Molecular Devices or NovoStar, BMG) at 485 nm excitation, 520 nm emission, and evaluation of the potency of the various substances/concentrations and determination of the EC50 values.
The test substances are used in triplicates in concentrations of 0.1-200 μM in the assay. Normally, the compounds are kept ready in DMSO solutions and diluted down to a maximum DMSO concentration of 2% for the assay.
The activity of the active substances in relation to activation of the TRPM8 channel is determined using the assay described. This is done in a concentration-dependent manner. For each active substance, 6 to 10 concentrations are measured as standard. A mathematical method (4-parameter or 5-parameter logistic curve fitting) can be used to determine the EC50 value as the inflection point of the sigmoidal curve from the activity values determined. These are standard biochemical methods that are familiar to experts.

Where [1] appears, read: TRPM8 activation, 6 to 10 concentrations, logistic curve fitting, read-out: EC50 value.

T1 sequence (Q7Z2W7 whole entry): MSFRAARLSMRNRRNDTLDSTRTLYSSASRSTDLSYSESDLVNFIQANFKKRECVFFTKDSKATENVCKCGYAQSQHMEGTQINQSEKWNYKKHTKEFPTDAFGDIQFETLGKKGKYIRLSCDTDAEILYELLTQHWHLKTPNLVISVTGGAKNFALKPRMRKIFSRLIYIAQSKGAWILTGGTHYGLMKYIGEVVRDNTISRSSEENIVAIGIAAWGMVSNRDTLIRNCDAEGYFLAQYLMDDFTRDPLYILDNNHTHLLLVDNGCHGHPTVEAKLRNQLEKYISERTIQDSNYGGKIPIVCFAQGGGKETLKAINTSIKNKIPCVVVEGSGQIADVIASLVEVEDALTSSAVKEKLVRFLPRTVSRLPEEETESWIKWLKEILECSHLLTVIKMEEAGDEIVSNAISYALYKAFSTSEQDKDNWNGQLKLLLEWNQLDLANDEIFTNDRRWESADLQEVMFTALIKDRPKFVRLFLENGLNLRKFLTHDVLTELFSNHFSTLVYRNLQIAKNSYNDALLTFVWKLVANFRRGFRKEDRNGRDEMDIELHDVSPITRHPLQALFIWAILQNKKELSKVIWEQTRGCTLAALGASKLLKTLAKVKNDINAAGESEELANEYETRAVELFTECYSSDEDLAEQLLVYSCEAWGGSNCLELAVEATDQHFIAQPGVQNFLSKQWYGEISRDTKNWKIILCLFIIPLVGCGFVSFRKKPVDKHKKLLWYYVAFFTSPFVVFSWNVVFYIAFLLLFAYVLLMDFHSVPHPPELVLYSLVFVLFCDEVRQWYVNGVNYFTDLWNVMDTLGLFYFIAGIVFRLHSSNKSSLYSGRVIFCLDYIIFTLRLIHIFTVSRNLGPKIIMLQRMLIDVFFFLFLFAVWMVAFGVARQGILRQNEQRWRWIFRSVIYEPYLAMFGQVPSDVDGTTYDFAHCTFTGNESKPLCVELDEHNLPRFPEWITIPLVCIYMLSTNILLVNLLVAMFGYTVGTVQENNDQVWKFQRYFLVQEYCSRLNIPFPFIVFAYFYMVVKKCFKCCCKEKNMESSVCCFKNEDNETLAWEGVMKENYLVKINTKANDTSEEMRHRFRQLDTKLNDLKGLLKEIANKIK

In the case of `OCCSc1nc(-c2ccccc2)c(-c2ccccc2)o1` [Compound A-60, 2-(4,5-diphenyloxazol-2-yl) sulfanylethanol], the “relative TRPM8 activation” value was determined as 0%. Take `CC(Sc1nc(-c2ccccc2)c(-c2ccccc2)o1)C(=O)NC(C)(C)C` (stereo not drawn) [Compound A-33, N-tert-butyl-2-(4,5-diphenyloxazol-2-yl) sulfanyl-propanamide]: the “relative TRPM8 activation” value turned out to be 21%.

For `c1ccc(CSc2nnc(-c3ccccc3)c(-c3ccccc3)n2)cc1` [Compound B-49, 3-benzylsulfanyl-5,6-diphenyl-1,2,4-triazine], the “relative TRPM8 activation” value worked out at 3%. Turning to `CNC(=O)CSc1cnc(-c2ccccc2)c(-c2ccccc2)n1` [Compound B-04, 2-(5,6-diphenylpyrazin-2-yl)sulfanyl-N-methyl-acetamide], the pEC50 (commonly the EC50 on a negative log10 scale, so that one unit is a factor of ten) reads like this: under setting [1], at least 6.00; (Table 5, read-out: TRPM8 EC50) 6.43; (Table 7, read-out: TRPM8 EC50) 6.43. As for `CNC(=O)C(C)Sc1ncco1` (stereo not drawn) [Compound A-50, N-methyl-2-oxazol-2-ylsulfanyl-propanamide], the “relative TRPM8 activation” value is reported as 1%. The same measure, in the same setting: next, `Cc1ccc(-c2nnc(SCC(=O)NC3CC3)nc2-c2ccc(C)cc2)cc1` [Compound B-62, 2-[[5,6-bis(p-tolyl)-1,2,4-triazin-3-yl]sulfanyl]-N-cyclopropyl-acetamide]: 0%. Turning to `CN(C)C(=O)CCc1nc(-c2ccccc2)c(-c2ccccc2)o1` [Compound A-34, 3-(4,5-diphenyloxazol-2-yl)-N,N-dimethyl-propanamide], the “relative TRPM8 activation” value is listed as 16%. Take `COCCNc1nnc(-c2ccccc2)c(-c2ccccc2)n1` [Compound B-55, N-(2-methoxyethyl)-5,6-diphenyl-1,2,4-triazin-3-amine]: the “relative TRPM8 activation” value came to 2%.

Turning to `CNC(=O)CSc1ncco1` [Compound A-59, N-methyl-2-oxazol-2-ylsulfanyl-acetamide], the “relative TRPM8 activation” value was 1%.

With `CCN(CC)C(=O)CSc1nc(-c2ccccc2)c(-c2ccccc2)o1` [Compound A-29, 2-(4,5-diphenyloxazol-2-yl)sulfanyl-N,N-diethyl-acetamide], the “relative TRPM8 activation” value amounted to 36%.

For `CNC(=O)C(C)Sc1nc(-c2ccc(OC)cc2)c(-c2ccc(OC)cc2)o1` (stereo not drawn) [Compound A-69, 2-[4,5-bis(4-methoxyphenyl)oxazol-2-yl]sulfanyl-N-methyl-propanamide], the “relative TRPM8 activation” value was −2%.

As for `CC(C)C(=O)CSc1nnc(-c2ccccc2)c(-c2ccccc2)n1` [Compound B-25, 1-[(5,6-diphenyl-1,2,4-triazin-3-yl)sulfanyl]-3-methyl-butan-2-one], the “relative TRPM8 activation” value came to 57%.

As for `CCSc1nnc(-c2ccccc2)c(-c2ccccc2)n1` [Compound B-37, 3-ethylsulfanyl-5,6-diphenyl-1,2,4-triazine], the “relative TRPM8 activation” value stood at 13%.

As to `CN(C)CCOc1nnc(-c2ccccc2)c(-c2ccccc2)n1` [Compound B-42, 2-[(5,6-diphenyl-1,2,4-triazin-3-yl)oxy]-N,N-dimethyl-ethanamine], the “relative TRPM8 activation” value is given as 8%. Same read-out and setting: the same measure for `CCC(=O)Nc1nnc(-c2ccccc2)c(-c2ccccc2)n1` [Compound B-47, N-(5,6-diphenyl-1,2,4-triazin-3-yl)propanamide]: 4%; for `CNC(=O)CSc1ncc(-c2ccccc2)[nH]1` [Compound A-64]: −1%; for `CCCCNC(=O)CSc1nc(-c2ccccc2)c(-c2ccccc2)o1` [Compound A-70, N-butyl-2-(4,5-diphenyloxazol-2-yl)sulfanyl-acetamide]: −2%. Consider `CN(C)C(=O)CSc1cnc(-c2ccccc2)c(-c2ccccc2)n1` [Compound B-23, 2-(5,6-diphenylpyrazin-2-yl)sulfanyl-N,N-dimethyl-acetamide], for which the “relative TRPM8 activation” value was determined as 73%. Same read-out and setting: next, `O=C(CSc1ncco1)NC1CC1` [Compound A-66, N-cyclopropyl-2-oxazol-2-ylsulfanyl-acetamide]: −1%.

As to `CCC(Sc1nnc(-c2ccccc2)c(-c2ccccc2)n1)C(=O)NC` (stereo not drawn) [Compound B-03, 2-[(5,6-diphenyl-1,2,4-triazin-3-yl)sulfanyl]-N-methyl-butanamide], the pEC50 is at least 6.00 under setting [1]; 7.15 (Table 5, read-out: TRPM8 EC50); 7.15 (Table 7, read-out: TRPM8 EC50). Consider `O=C(COc1nnc(-c2ccccc2)c(-c2ccccc2)n1)NC1CC1` [Compound B-53, N-cyclopropyl-2-[(5,6-diphenyl-1,2,4-triazin-3-yl)oxy]acetamide], for which the “relative TRPM8 activation” value amounted to 2%.

As for `CNC(=O)C(C)Sc1nnc(-c2ccc(OC)cc2)c(-c2ccc(OC)cc2)n1` (stereo not drawn) [Compound B-40, 2-[[5,6-bis(4-methoxyphenyl)-1,2,4-triazin-3-yl]sulfanyl]-N-methyl-propanamide], the “relative TRPM8 activation” value came out at 9%. The same measure, in the same setting: the same measure for `CSc1nnc(-c2ccccc2)c(-c2ccccc2)n1` [Compound B-64, 3-methylsulfanyl-5,6-diphenyl-1,2,4-triazine]: −3%.

Take `CCNC(=O)CSc1nc(-c2ccccc2)c(-c2ccccc2)o1` [Compound A-17, 2-(4,5-diphenyloxazol-2-yl)sulfanyl-N-ethyl-acetamide]: the pEC50 is 5.23 (Table 6, read-out: TRPM8 EC50) and 5.23 (Table 8, read-out: TRPM8 EC50). On to `CC(Sc1nc(-c2ccccc2)c(-c2ccccc2)o1)C(=O)NC1CCCC1` (stereo not drawn) [Compound A-30, N-cyclopentyl-2-(4,5-diphenyloxazol-2-yl)sulfanyl-propanamide], for which the “relative TRPM8 activation” value came to 26%. `CC(=O)NCCc1nc(-c2ccccc2)c(-c2ccccc2)o1` [Compound A-24, N-[2-(4,5-diphenyloxazol-2-yl)ethyl] acetamide]: the “relative TRPM8 activation” value is recorded as 56%. Where the note is “Table 6, read-out: TRPM8 EC50”, the pEC50 was 4.95. The negative-log EC50 (pEC50) (Table 8, read-out: TRPM8 EC50) was 4.95.

For the compound `CC(Sc1nnc(-c2ccccc2)c(-c2ccccc2)n1)C(=O)NCc1ccco1` (stereo not drawn) [Compound B-28, 2-[(5,6-diphenyl-1,2,4-triazin-3-yl)sulfanyl]-N-(2-furylmethyl)propanamide], the “relative TRPM8 activation” value was determined as 53%.

Take `COCC(C)NC(=O)CSc1nc(-c2ccccc2)c(-c2ccccc2)o1` (stereo not drawn) [Compound A-67, 2-(4,5-diphenyloxazol-2-yl)sulfanyl-N-(2-methoxy-1-methyl-ethyl)acetamide]: the “relative TRPM8 activation” value is −2%.

`CCC(=O)CSc1nc(-c2ccccc2)c(-c2ccccc2)o1` [Compound A-61, 1-(4,5-diphenyloxazol-2-yl)sulfanylbutan-2-one]: the “relative TRPM8 activation” value amounted to 0%. Same read-out and setting: next, `CNC(=O)CCSc1nc(-c2ccccc2)c(-c2ccccc2)o1` [Compound A-49, 3-(4,5-diphenyloxazol-2-yl)sulfanyl-N-methyl-propanamide]: 2%; `CN(C)c1nc(-c2ccccc2)c(-c2ccccc2)o1` [Compound A-71, N,N-dimethyl-4,5-diphenyl-oxazol-2-amine]: −3%.

As for `CNC(=O)CCCc1nc(-c2ccccc2)c(-c2ccccc2)o1` [Compound A-36, 4-(4,5-diphenyloxazol-2-yl)-N-methyl-butanamide], the “relative TRPM8 activation” value was determined as 12%.
